From patent publication US10156564B1, “Methods of detecting biomarkers of endoplasmic reticulum (ER) stress-associated kidney diseases” (Washington University, priority 2016, dated 2018)
“Also recorded” adds a separate entry of the source.

Legend:
mouse primary podocytes = assay: CRELD2 expression in mouse primary podocytes treated with ER stress inducers (WB, immunofluorescence); assay type: cell-based; conditions: for CRELD2 immunofluorescence in podocytes: TM 2 μg/ml or TG 1 μM for 24 h, overlapped with BiP; for CRELD2 expression in cell lysates (WB): TM 2 μg/ml or TG 1 μM for 24 h vs DMSO vehicle
Description: FIG. 9A is an image of a Western blot showing mouse primary podocytes were treated with DMSO (control), tunicamycin (TM) (2 μg/ml) or thapsigargin (TG) (1 μM) for 24 h. Cell lysates were analyzed by WB with the indicated antibodies. TM and TG are ER stress inducers.
FIG. 9B is a series of images showing control and TM- or TG-treated mouse podocytes, as described in FIG. 9A stained for CRELD2 (red) and BiP (green). Nuclei were counterstained with Hoechst 33342 (blue). Scale bar, 40 μm.
CRELD2 is a urinary biomarker for detecting podocyte ER stress in the early stages of podocyte ER stress-induced nephrotic syndrome (NS) in mice. Initial experiments (see e.g., Example 2) determined ER stress increases CRELD2 expression and secretion in mouse primary podocytes. Mouse podocytes were treated for 24 h with tunicamycin (TM), which activates ER stress by blocking N-linked glycosylation in the ER (26), or TG, which depletes ER calcium through inhibition of ER calcium ATPase (27). […] The effects of ER stress on CRELD2 secretion were also examined.
Isolated glomeruli from Lamb2^+/−, Lamb2^−/−; Tg-C321R and Lamb2^−/−; Tg-WT mice at P27 were suspended in DMEM/Ham's F-12 (2:1) that contained 0.45 μm-filtered 3T3-L1 supernatant, 5% heat inactivated FBS, ITS (Insulin-Transferrin-Sodium Selenite) liquid media supplement, and 100 U/ml penicillin-streptomycin; plated onto collagen type I-coated petri dishes; and incubated at 37° C. in room air with 5% CO2. After 3 days, cell colonies began to sprout around the glomeruli. […] Only passages 1-2 podocytes from the indicated genotypes were used in the in vitro studies.
For immunocytochemistry, mouse primary podocytes were seeded on cover slips coated with 5 μg/ml rat collagen I that was dissolved in 0.02M acetic acid in 24 well plates for 48 hours. After 24 hours treatment with DMSO, TM or TG, the cells were fixed with 4% PFA for 20 minutes and permeabilized with 1% Triton X-100 for 5 minutes at room temperature, blocked with 1% BSA for 30 minutes at room temperature, followed by incubation with goat anti-mouse CRELD2 (R&D) and rabbit anti-mouse BiP antibodies for an additional 1 hour at room temperature. The cover slips were washed with PBS and incubated with the corresponding Alexa 594- or Alexa 488-conjugated secondary antibodies and Hoechst 33342 to stain nuclei. The cover slips were then mounted with anti-quench solution and visualized using a fluorescence microscope (Nikon).
Isolated mouse glomeruli and cultured mouse primary podocytes were lysed by RIPA buffer (Sigma) containing protease inhibitor cocktail (Roche, Indianapolis, Ind.). TM untreated- and treated-kidneys, as well as sham-operated and I/R-injured kidneys, were extracted using the same lysis buffer with the protease inhibitors and homogenized by sonication. The protein concentrations of cell, glomerular and kidney lysates were determined by Bio-Rad protein assay (Hercules, Calif.) using BSA as a standard. Denatured proteins were separated on SDS polyacrylamide gel electrophoresis (SDS-PAGE) and then transferred to PVDF membranes. Blots were blocked with 5% non-fat milk for 1 hour and then incubated overnight with primary antibodies. The membranes were washed with Tris-buffered saline/TWEEN® (polysorbate) buffer and incubated with the appropriate HRP-conjugated secondary antibodies. […] Relative intensities of protein bands were quantified using ImageJ (NIH) analysis software.

C57BL/6J mice [1] = assay: TM-induced AKI mouse model (kidney and urine CRELD2/BiP, histology); assay type: in vivo; conditions: for BiP in ER stressed-tubular cells (immunofluorescence): 1 day and 5 days post TM injection (FIG. 19); for urinary CRELD2 excretion (WB): urine within 24 hours after TM 1 mg/kg IP vs vehicle; for BiP in urine (immunodetection): within 24 hr from TM injection, no obvious histological changes of kidney injury (FIG. 20)
Description: FIG. 10A is a bar graph showing quantitative RT-PCR analysis of relative transcript levels of CRELD2 in kidneys at the indicated time points following TM injection (1 mg/kg, IP) as compared to DMSO vehicle-injected controls. Absolute levels were normalized first to those of GAPDH and then to the levels in the control kidneys (mean±SD). **P<0.01 and ***P<0.001 by ANOVA (n=3 mice per group).
FIG. 10B is a series of images showing dual IF staining for CRELD2 (green) and LTL (red) on paraformaldehyde-fixed, sucrose-cryoprotected kidney sections from mice treated with vehicle or TM (1 mg/kg) at the indicated time points. Nuclei were counterstained with Hoechst 33342 (blue). G: glomerulus. Scale bars, 40 μm.
FIG. 10C is a Western blot showing whole-kidney lysates from mice treated with or without TM (1 mg/kg) at different time points were analyzed by WB for levels of CRELD2 and β-actin.
FIG. 10E is an image of a Western blot showing the detection of urinary CRELD2 within 1 day of TM injection. Urines were collected for 24 hours after the mice were injected with vehicle or 1 mg/kg TM (IP). Crude urine samples from mice treated with vehicle (n=8) or TM (n=8) were analyzed by WB for CRELD2 excretion. The urinary CRELD2 excretion was normalized to 2 μg of urine Cr excretion.
Intraperitoneal (IP) injection of TM in mice is a well characterized AKI model caused by renal proximal tubular ER stress (29). […] In comparison, glomeruli and other organs are spared (21, 29).
TM was dissolved in DMSO at 2 mg/ml, and injected intraperitoneally at 1 mg/kg into 6-10 weeks old C57BL/6J mice. Urine was collected from metabolic cages in which the mice were immediately placed after the injection. 1 day or 5 days after the injection, sera were obtained, and kidneys were harvested. One kidney was snap frozen in dry ice and stored at −70 C until further processing for protein and RNA. The other kidney was fixed in 4% paraformaldehyde (PFA) (pH 7.4) at 4 C and then transferred to 15% and 30% sucrose/PBS for OCT-embedded cryosections.
For dual staining of CRELD2 with biotinylated LTL in mouse kidneys, […]. After dewaxing, PFA-fixed, sucrose-cryoprotected kidney sections from control or TM-treated mice were subjected to antigen retrieval by immersion in 10 mM citric acid buffer (pH 6.0) for 5 minutes at 95 C. […] Nonspecific avidin binding was blocked by an avidin/biotin blocking kit (Vector laboratories) before incubating kidney sections with 1% BSA for 30 minutes at room temperature. The slides were stained with a goat anti-mouse CRELD2 antibody (R&D) together with biotinylated LTL overnight at 4° C., followed by an Alexa 488-conjugated anti-goat secondary antibody and Alexa 594-conjugated streptavidin as well as Hoechst 33342. For CRELD2 staining in sham-operated and post-ischemic kidneys, the fluorescent signal was further amplified using a Fluorescein tyramide amplification kit (Perkin-Elmer, Waltham, Mass.) according to the manufacturer's instructions. Slides were analyzed under a fluorescence microscope (Nikon).
Isolated mouse glomeruli and cultured mouse primary podocytes were lysed by RIPA buffer (Sigma) containing protease inhibitor cocktail (Roche, Indianapolis, Ind.). TM untreated- and treated-kidneys, as well as sham-operated and I/R-injured kidneys, were extracted using the same lysis buffer with the protease inhibitors and homogenized by sonication. The protein concentrations of cell, glomerular and kidney lysates were determined by Bio-Rad protein assay (Hercules, Calif.) using BSA as a standard. Denatured proteins were separated on SDS polyacrylamide gel electrophoresis (SDS-PAGE) and then transferred to PVDF membranes. Blots were blocked with 5% non-fat milk for 1 hour and then incubated overnight with primary antibodies. The membranes were washed with Tris-buffered saline/TWEEN® (polysorbate) buffer and incubated with the appropriate HRP-conjugated secondary antibodies. […]

C57BL/6J mice [2] = conditions: cited from earlier work

Compound: C/C=C(/C)C(=O)O[C@H]1C(C)=C2[C@H]([C@@H]1OC(=O)CCCCCCC)[C@@](C)(OC(C)=O)C[C@H](OC(=O)CCC)[C@@]1(O)[C@H]2OC(=O)[C@@]1(C)O [TG, thapsigargin]
- CRELD2 immunofluorescence in podocytes (mouse primary podocytes): upregulated
- CRELD2 expression in cell lysates (WB) (mouse primary podocytes): induced expression of CRELD2

Compound: tunicamycin [TM]
- CRELD2 immunofluorescence in podocytes (mouse primary podocytes): upregulated
- CRELD2 expression in cell lysates (WB) (mouse primary podocytes): induced expression of CRELD2
- form of CRELD2 expressed (WB) (mouse primary podocytes; TM 2 μg/ml, 24 h): underglycosylated form of CRELD2
- CRELD2 in ER-stressed proximal tubular cells (marked by LTL) (C57BL/6J mice [1]; 1 day and 5 days post TM injection (FIG. 4)): upregulated
- BiP in ER stressed-tubular cells (immunofluorescence) (C57BL/6J mice [1]): upregulated
- BiP in ER stressed-tubular cells (immunofluorescence) (C57BL/6J mice [1]; listed as tunicamycin): upregulation
- CRELD2 immunostaining in proximal tubules (co-IF with LTL) (C57BL/6J mice [1]; 5 days post-injection, TM 1 mg/kg IP): subsided
- CRELD2 induction in glomeruli (IF) (C57BL/6J mice [1]; TM-injected kidneys, 1 mg/kg IP): did not exhibit CRELD2 induction
- BiP in kidney lysates (immunodetection) (C57BL/6J mice [1]; TM-injected mice (FIG. 18)): induced
- CRELD2 in kidney lysates (immunodetection) (C57BL/6J mice [1]; TM-injected mice, time not stated (FIG. 3)): induced
- CRELD2 transcript levels in whole-kidney lysates (RT-PCR) (C57BL/6J mice [1]; day 1 after TM 1 mg/kg IP vs DMSO vehicle or day 5): significantly increased
- CRELD2 immunostaining in proximal tubules (co-IF with LTL) (C57BL/6J mice [1]; day 1 following TM 1 mg/kg IP vs controls): substantially upregulated
- CRELD2 protein expression in kidneys (WB) (C57BL/6J mice [1]; day 1 vs controls or day 5 post-injection, TM 1 mg/kg IP): higher
- urinary CRELD2 excretion (WB) (C57BL/6J mice [1]): can be detected; also recorded: dramatically increased
- urinary CRELD2 excretion (WB) (C57BL/6J mice [1]; listed as tunicamycin): immunodetection of CRELD2 in the urine
- BiP in urine (immunodetection) (C57BL/6J mice [1]): detected
- BiP in urine (immunodetection) (C57BL/6J mice [1]; listed as tunicamycin): immunodetection of BiP in urine
- ER stress response genes including BiP, CHOP, MANF and EDEM (C57BL/6J mice [2]; day 1 after TM injection): upregulated
- renal function and histology (C57BL/6J mice [2]; day 1 after TM injection): normal renal function and the absence of conspicuous histologic changes
- renal histology after IP injection of TM (C57BL/6J mice [2]; peaks between 4 and 5 days after injection, glomeruli and other organs spared): extensive tubular dilation, epithelial flattening, tubular basement membrane denudation and loss of brush borders in proximal tubules
